According to PMC10739591, “mCherry on Top: A Positive Read-Out Cellular Platform for Screening DMD Exon Skipping Xenopeptide–PMO Conjugates” (Bioconjugate Chemistry, 2023):

Tested on: DMD exon 23
Experiment: Splicing modulation in vivo (DMD exon 23 skipping, nested RT-PCR ex vivo)
Settings: BALB/c mice, i.v., 375 µg PMO, 48 h after injection
Protocol: 6-week-old female BALB/c mice (BALB/cByJRj, Janvier, Le Genest-Saint-Isle, France) were housed in isolated ventilated cages under pathogen-free conditions with a 12 h light/dark interval. The mice were acclimated for 7 days prior to treatments. Water and food were provided ad libitum. For splice switching in the physiological DMD gene, PMO formulations were prepared 48 h before intravenous injection, as described above. The freeze-dried PMO formulations were reconstituted with HBG to obtain a concentration of 375 μg PMO per 150 μL. The mice were randomly divided into three groups (n = 6 for PMO(Ex23)-1395, and n = 5 for free 3′ primary amine-modified PMO(Ex23) and PMO(705)-1395). 150 μL of PMO solution was injected intravenously into a lateral tail vein. 48 h after injection, the mice were euthanized and the brain, spleen, quadriceps femoris muscle, kidneys, liver, lung, and heart were harvested. For stabilization of the mRNA, the organs were incubated in RNAlater solution (Thermo Fisher Scientific, Waltham) overnight at 4 °C and afterward stored at −20 °C. Each organ was manually homogenized using a mortar and pestle and liquid nitrogen. […]
The final PCR products were analyzed by agarose gel electrophoresis (2% agarose gel; 100 V; 2 h). Individual band intensities were quantified and put into relation to the band of full-length DMD-Ex20–24 with a size of 633 bp by using ImageJ software.

Substance: PMO(Ex23): PMO GGCCAAACCTCGGCTTACCTGAAAT with 3'-primary amine; targets donor splice site of DMD intron 23 (PMO, 3'-primary amine, chemistry not fully specified)
- DMD exon 23 skipping in skeletal muscle (quadriceps femoris): predominant splice-switching activity in the skeletal muscle
